The structures appear in SMILES notation.

The values that follow come from patent US7285569B2, “Tricycles, their manufacture and use as pharmaceutical agents” (Hoff Hoffmann-La Roche Inc., priority 2004, dated 2007).

One experiment deals with T1, Aurora A (Homo sapiens, UniProt O14965).
T1 construct: C-terminally Histidine4 (His4)-tagged Aurora A full-length protein
T1 sequence (O14965 1-403): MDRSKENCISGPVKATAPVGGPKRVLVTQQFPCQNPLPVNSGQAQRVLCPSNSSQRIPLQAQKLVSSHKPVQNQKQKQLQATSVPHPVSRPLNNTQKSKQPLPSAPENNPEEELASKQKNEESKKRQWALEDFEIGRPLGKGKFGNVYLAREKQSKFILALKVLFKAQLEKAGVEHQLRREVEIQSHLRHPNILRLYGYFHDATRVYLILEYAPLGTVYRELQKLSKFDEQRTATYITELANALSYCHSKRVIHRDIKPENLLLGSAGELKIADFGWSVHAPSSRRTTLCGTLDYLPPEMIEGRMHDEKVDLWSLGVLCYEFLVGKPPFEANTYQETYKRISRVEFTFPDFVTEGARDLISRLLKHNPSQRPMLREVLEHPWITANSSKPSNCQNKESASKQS
In words: IC50 determination for inhibitors of Aurora A (96 MTP-ELISA). Format: biochemical. The note with it: His4-tagged full-length Aurora A 250 ng/ml, PKB-GSK2 200 nM, ATP 4 μM, 90 min at room temperature; read-out: IC50 Aurora A kinase inhibition. The source says:
IC50 Determination for Inhibitors of Aurora A
Aurora A is a serine threonine kinase involved in spindle assembly and chromosome segregation.
The assay is a typically ELISA-type assay where biotinylated substrate (PKB-GSK2) is phosphorylated. Phosphorylation is detected by peroxidase (POD) labelled polyclonal antibody (PAK<M-Ig>S-IgG-POD) and phosphopeptide monoclonal antibody (Mab) (MAK<P-GSK>M-27E5-IgG). The assay is validated for IC50-determination.
Aurora A-His-4 C-terminally Histidine4 (His4)-tagged Aurora A full-length protein, stock solution 0.7 mg/ml, final conc.: 250 ng/ml
PKB-GSK2 biotinylated peptide derived from human GSK3-alpha sequence (Biotin-SGRARTSSFAEPGG-CONH2), stock solution 600 μM, final conc.: 200 nM
ATP Adenosine-5′-triphosphate 1 mM, diluted in kinase buffer, (Roche Diagnostics GmbH, Cat. No.: 127531-001,), final conc.: 4 μM
Kinase buffer 50 mM TRIS, 10 mM MgCl2, 1 mM DTT, 0.1% Tween 20, pH 7.8
This assay is performed in 96-well format for IC50 determination with 5 samples (each with 8 concentrations by twofold testing), 100 μl incubation volume and the following plate layout:
Step/Action 1. Sample preparation: add 24 μl per well samples (descending sequence) diluted in kinase buffer to assay plate (final conc. for DMSO 1%). 2. Add directly 16 μl Aurora-A-his-4 diluted in kinase buffer to assay plate. 3. Add directly 40 μl per well PKB-GSK2/ATP mixture to assay plate, (final conc.: Aurora A=250 ng/ml, GSK2=200 nM, ATP=4 μM). Negative control: without ATP. 4. Incubate assay plate for exactly 90 min at room temperature. 5. Stop reaction by adding 20 μl EDTA in all wells. 6. Wash assay plate 3× with 200 μl washing buffer per well. 7. Add 100 μl MAK<P-GSK>M27E5-IgG (1:10000) and PAK<M-Ig>S-IgG-POD (1:6000) dissolved in 3% BSA/PBS-T to assay plate per well. 8. Incubate assay plate for 60 min at room temperature. 9. Wash assay plate 3× with 200 μl washing buffer per well 10. Add 100 μl ABTS solution to assay plate per well, incubate for approx. 4 min at RT on MTP shaker. 11. Measure absorption at 405/492 nm. 12. Calculate % inhibition as: (1−(Esample−ENC)/(EPC−ENC))×100 13. Calculate IC50 using a non-linear curve fit (XLfit software (ID Business Solution Ltd., Guilford, Surrey, UK))
(In an ELISA, binding on a coated surface is turned into a signal by an enzyme label.)

A further experiment deals with HCT 116 cells. In words: CellTiter-Glo assay in HCT 116 cells (antiproliferative activity). The format is cell-based. The note with it: HCT 116 human colon carcinoma cells, 5 days (120 h) incubation, CellTiter-Glo luminescence. The source says: Antiproliferative Activity
CellTiter-Glo™ Assay in HCT 116 Cells
The CellTiter-Glo™ Luminescent Cell Viability Assay (Promega) is a homogeneous method of determining the number of viable cells in culture based on quantitation of the ATP present, which signals the presence of metabolically active cells.
HCT 116 cells (human colon carcinoma, ATCC-No. CCI-247) were cultivated in RPMI 1640 medium with GlutaMAX™ I (Invitrogen, Cat-No. 61870-010), 2.5% Fetal Calf Serum (FCS, Sigma Cat-No. F4135 (FBS)); 100 Units/ml penicillin/100 μg/ml streptomycin (=Pen/Strep from Invitrogen Cat. No. 15140). For the assay the cells were seeded in 384 well plates, 1000 cells per well, in the same medium. The next day the test compounds were added in various concentrations ranging from 30 μM to 0.0015 μM (10 concentrations, 1:3 diluted). After 5 days the CellTiter-Glo™ assay was done according to the instructions of the manufacturer (CellTiter-Glo™ Luminescent Cell Viability Assay, from Promega). In brief: the cell-plate was equilibrated to room temperature for approximately 30 minutes and than the CellTiter-Glo™ reagent was added. The contents were carefully mixed for 15 minutes to induce cell lysis. After 45 minutes the luminescent signal was measured in Victor 2, (scanning multiwell spectrophotometer, Wallac).
Medium: RPMI 1640 with GlutaMAX™ I (Invitrogen, Cat-Nr. 61870), 5% FCS (Sigma Cat.-No. F4135), Pen/Strep (Invitrogen, Cat No. 15140).
HCT116 (ATCC-No. CCI-247): 1000 cells in 60 μl per well of 384 well plate (Greiner 781098, μClear-plate white)
After seeding incubate plates 24 h at 37° C., 5% CO2
2nd. Day: Induction (Treatment with Compounds, 10 Concentrations):
In order to achieve a final concentration of 30 μM as highest concentration 3.5 μl of 10 mM compound stock solution were added directly to 163 μl media. Then step e) of the dilution procedure described below, was followed.
In order to achieve the second highest to the lowest concentrations, a serial dilution with dilution steps of 1:3 was followed according to the procedure (a-e) as described here below: • for the second highest concentration add 10 μl of 10 mM stock solution of compound to 20 μl dimethylsulfoxide (DMSO) • dilute 8×1:3 (always 10 μl to 20 μl DMSO) in this DMSO dilution row (results in 9 wells with concentrations from 3333.3 μM to 0.51 μM) • dilute each concentration 1:47.6 (3.5 μl compound dilution to 163 μl media) • add 10 μl of every concentration to 60 μl media in the cell plate resulting in final concentration of DMSO: 0.3% in every well and resulting in 10 final concentration of compounds ranging from 30 μM to 0.0015 μM. • Each compound is tested in triplicate. • Incubate 120 h (5 days) at 37° C., 5% CO2 Analysis:
Add 30 μl CellTiter-Glo™ Reagent (prepared from CellTiter-Glo™ Buffer and CellTiter-Glo™ Substrate (lyophilized) purchased from Promega) per well, • shake 15 minutes at room temperature • incubate further 45 minutes at room temperature without shaking Measurement:
Victor 2 scanning multiwell spectrophotometer (Wallac), Luminescence mode (0.5 sec/read, 477 nm)
Determine IC50 using a non-linear curve fit (XLfit software (ID Business Solution Ltd., Guilford, Surrey, UK))
On the technique in general: In ATP-based viability assays light output follows the ATP content of the culture.

For orientation: IC50 means the midpoint of a concentration-inhibition curve. `CC(=O)N1CC(C)(C)c2cc3nc(-c4cc(C)n[nH]4)[nH]c3cc21` [Example 2, 1-[7,7-Dimethyl-2-(5-methyl-2H-pyrazol-3-yl)-6,7-dihydro-3H-imidazo[4,5-f]indol-5-yl]-ethanone]: the figures for the IC50 on Aurora A and in the experiment on HCT 116 cells were 10 to 500 nM and 4670 nM, respectively.

`Cc1cc(-c2nc3cc4c(cc3[nH]2)C(C)(C)CC(=O)N4)n[nH]1` [Example 3, 8,8-Dimethyl-2-(5-methyl-1H-pyrazol-3-yl)-1,5,7,8-tetrahydro-imidazo[4,5-g]quinolin-6-one]: the IC50 at Aurora A was 212 nM; in the experiment with HCT 116 cells it was 10000 to 100000 nM. The corresponding values for `CC(C)Cc1cc(-c2nc3cc4c(cc3[nH]2)C(C)(C)CC(=O)N4)[nH]n1` [Example 4, 2-(5-Isobutyl-2H-pyrazol-3-yl)-8,8-dimethyl-1,5,7,8-tetrahydro-imidazo[4,5-g]quinolin-6-one] are 500 to 1500 nM and 7650 nM. The corresponding values for `Cc1cc(-c2nc3cc4c(cc3[nH]2)NC(=O)C4(C)C)n[nH]1` [Example 5, 7,7-Dimethyl-2-(5-methyl-2H-pyrazol-3-yl)-5,7-dihydro-3H-imidazo[4,5-f]indol-6-one] are 10 to 500 nM and 100 to 10000 nM. Consider `CC(C)Cc1cc(-c2nc3cc4c(cc3[nH]2)C(C)(C)C(=O)N4)[nH]n1` [Example 6, 2-(5-isobutyl-2H-pyrazol-3-yl)-7,7-dimethyl-5,7-dihydro-1H-imidazo[4,5-f]indol-6-one], for which the results for the IC50 on Aurora A and in the experiment on HCT 116 cells were 500 to 1500 nM and 100 to 10000 nM, respectively. On to `Cc1cc(-c2nc3cc4c(cc3[nH]2)NC(=O)C42CCCC2)[nH]n1` [Example 7, 2-(5-Methyl-2H-pyrazol-3-yl)-spiro-5,7-dihydro[cyclopentane-1′,7-imidazo[4,5-f]indol]-6(3H)-one], for which the IC50 is 10 to 500 nM on Aurora A and 100 to 10000 nM in the experiment with HCT 116 cells.

For `Cc1cc(-c2nc3cc4[nH]c(=O)[nH]c4cc3[nH]2)n[nH]1` [Example 9, 6-(5-Methyl-1H-pyrazol-3-yl)-3,5-dihydro-1H-benzo[1,2-d;4,5-d′]diimidazol-2-one], the IC50 at Aurora A is 500 to 1500 nM; in the experiment on HCT 116 cells, 10000 to 100000 nM.

On to `Cc1cc(-c2nc3cc4[nH]c(=O)n(C(C)C)c4cc3[nH]2)n[nH]1` [Example 11, 3-Isopropyl-6-(5-methyl-1H-pyrazol-3-yl)-3,5-dihydro-1H-benzo[1,2-d;4,5-d′]diimidazol-2-one], for which the values for the IC50 on Aurora A and with HCT 116 cells were 158 nM and 10000 to 100000 nM, respectively. Turning to `Cc1[nH]nc(-c2nc3cc4c(cc3[nH]2)C(C)(C)C(=O)N4)c1C` [Example 17, 2-(4,5-Dimethyl-1H-pyrazol-3-yl)-7,7-dimethyl-5,7-dihydro-1H-imidazo[4,5-f]indol-6-one], the IC50 at Aurora A fell in the range of 10 to 500 nM; in the experiment on HCT 116 cells it was 100 to 10000 nM. The corresponding values for `CC(C)CCc1cc(-c2nc3cc4c(cc3[nH]2)C(C)(C)C(=O)N4)n[nH]1` [Example 18, 7,7-Dimethyl-2-[5-(3-methyl-butyl)-1H-pyrazol-3-yl]-5,7-dihydro-1H-imidazo[4,5-f]indol-6-one] are 10 to 500 nM and 100 to 10000 nM. The corresponding values for `CCCc1cc(-c2nc3cc4c(cc3[nH]2)C(C)(C)CC(=O)N4)[nH]n1` [Example 23, 8,8-Dimethyl-2-(5-propyl-2H-pyrazol-3-yl)-1,5,7,8-tetrahydro-imidazo[4,5-g]quinolin-6-one] are 10 to 500 nM and 100 to 10000 nM.

Take `CC1(C)CC(=O)Nc2cc3nc(-c4cc[nH]n4)[nH]c3cc21` [Example 24, 8,8-Dimethyl-2-(1H-pyrazol-3-yl)-1,5,7,8-tetrahydro-imidazo[4,5-g]quinolin-6-one]: the IC50 lay within 500 to 1500 nM at Aurora A and 100 to 10000 nM in the experiment on HCT 116 cells.

`CC1(C)CC(=O)Nc2cc3nc(-c4cc(C5CC5)[nH]n4)[nH]c3cc21` [Example 25, 2-(5-Cyclopropyl-1H-pyrazol-3-yl)-8,8-dimethyl-1,5,7,8-tetrahydro-imidazo[4,5-g]quinolin-6-one]: the IC50 at Aurora A fell in the range of 10 to 500 nM. For `O=C1Nc2cc3[nH]c(-c4ccn[nH]4)nc3cc2C12CCCC2` [Example 27, 2-(2H-pyrazol-3-yl)-spiro-5,7-dihydro[cyclopentane-1′,7-imidazo[4,5-f]indol]-6(3H)-one], the IC50 was 10 to 500 nM on Aurora A and 100 to 10000 nM in the experiment on HCT 116 cells. The corresponding values for `CC(C)c1cc(-c2nc3cc4c(cc3[nH]2)NC(=O)C42CCCC2)[nH]n1` [Example 28, 2-(5-Isopropyl-2H-pyrazol-3-yl)-spiro-5,7-dihydro[cyclopentane-1′,7-imidazo[4,5-f]indol]-6(3H)-one] are 500 to 1500 nM and 100 to 10000 nM.

With `CCCc1cc(-c2nc3cc4c(cc3[nH]2)NC(=O)C42CCCC2)[nH]n1` [Example 29, 2-(5-Propyl-2H-pyrazol-3-yl)-spiro-5,7-dihydro[cyclopentane-1′,7-imidazo[4,5-f]indol]-6(3H)-one], the half-maximal inhibitory concentration (IC50) on Aurora A is 500 to 1500 nM. With `Cc1cc(-c2nc3cc4c(cc3[nH]2)N(C)C(=O)C4(C)C)n[nH]1` [Example 31, 5,7,7-Trimethyl-2-(5-methyl-1H-pyrazol-3-yl)-5,7-dihydro-3H-imidazo[4,5-f]indol-6-one], the IC50 was 10 to 500 nM on Aurora A and 100 to 10000 nM with HCT 116 cells.
